The subject of one series is C57BL/6J mice. The series is described as follows: Muscle hypertrophy model (gastrocnemius removal) and endurance exercise capacity test. The series is classed as in vivo. An excerpt: The objective of this study was to test the effects of 25-OH D3 in a muscle hypertrophy model and in an endurance exercise capacity test in C57BL/6J mice. It is recognized in the art that removal of the gastrocnemius muscle induces compensatory hypertrophy in the soleus and plantaris muscles by multiple mechanisms leading to improved muscle strength and leg power.
Two groups of 10 animals were anesthetized and the left hindlimb of the animals was fixed. All animals received an analgesic. A small incision was made through the skin over the gastrocnemius muscle. The complete gastrocnemius muscle and the tendons were exposed. Both heads of the gastrocnemius muscle were carefully dissected from the underlying intact muscles and care was taken not to rupture nerves and vessels. The skin was closed with a silk suture and the animals were returned into the cages. After recovering from anesthesia the animals could move directly without problems in their cages. Animals were treated for three weeks by gavage with 25-OH D3 at a daily dosage of 50 μg/kg and the control group received vehicle. At the end of the study endurance exercise capacity of all animals was tested on a rodent treadmill.

For series [1], the system named is healthy, postmenopausal women. The series is described as follows: Clinical trial: muscle function (repeated sit-to-stand, timed up & go). As to conditions: for Muscle function, repeated sit-to-stand, change vs. baseline / Muscle function, timed-up-and-go, change vs. baseline: daily 20 μg per day / weekly 140 μg per week, oral. It counts as in vivo, human. An excerpt: (§1) Each group included five subjects. They are followed for four months in Zurich, Switzerland during the winter.
(§2) Equimolar quantities of both substances were investigated. […] As the maximum pre-existing baseline concentration of 25-OH D3 will be 50 nmol/L, it is not anticipated that subjects will approach the range where disturbance in Ca^2+ homeostasis has been observed.
(§3) Each dosage is consumed orally at breakfast. The duration of the study is four months for the “Daily” and “Weekly” groups. Subjects enrolled in the “Bolus” group consume orally a single dosage at the second study visit.
(§4) Muscle strength and function were assessed by the following standard performance tests: knee flexor and extensor strength, repeated sit-to-stand test and timed up & go (TUG) in Week 1 on visit 2 (baseline) and at study end on visit 15. Muscle strength was measured as knee extensor and flexor in Newtons (kiloponds). TUG is a measure of functional mobility including muscle strength, gait speed, and balance and is assessed in seconds. The repeated sit-to-stand is a functional test and measured in seconds.

In series [2] the test system is gastrocnemius muscle gene expression (mRNA). The experiment in a line: Gene chip analysis of gastrocnemius muscle in hindlimb unloaded (tail suspension) skeletal muscle atrophy model. Particulars: for Differentially expressed muscle genes compared to HU: selected skeletal muscle genes. It counts as in vivo, BalbC mice. The text has this: Initially this model was established in rats for simulating spaceflight in humans and is commonly used in other scientific fields to study the loss of skeletal muscle mass or bone. The results are considered indicative of human conditions such as sarcopenia (degenerative loss of skeletal muscle mass and strength during the process of ageing) or immobilization of skeletal muscle (e.g. after prolonged bed rest due to fractures, surgery or trauma). Methods For our study, nine month old BalbC female mice were randomized at the beginning of the study into four groups with 10 animals per group • 1. […] The animals were placed in special cages for duration of seven days; all mice were housed separately and had free access to feed and water ad libidum. […] At the end of the study the gastrocnemius muscle was taken out and directly frozen in liquid nitrogen for further analysis. […] Total RNA was isolated using the commonly used Trizol protocol. The RNA was quantified by using spectrophotometric analysis. The integrity of total RNA samples was also assessed qualitatively on an Agilent 2100 Bioanalyzer. RNA was then prepared for the one cycle cDNA synthesis. A poly-A RNA control is used for this step to provide exogenous positive controls to monitor the entire eukaryotic target labelling process. The first cDNA synthesis is done, and after the second strand cDNA synthesis the cDNA is cleaned up of double-stranded cDNA. A biotin labelled cRNA is then synthesised, cleaned up and quantified using a spectrophotometer at 260/280 nm. It is important that cRNA target is fragmented before hybridization onto a GeneChip probe arrays to obtain optimal assay sensitivity. After fragmentation the probes are hybridized on the chips (Affymetrix Mouse 430-2 chips). The chips are washed and stained in the fluidics station of Affymetrix and scanned in the gene chip scanner. The data is then transferred from the scanner for further analysis using software from Genedata (Expressionist 5.0: […] Analyst). Data interpretation and pathway analysis was done with the online version of the GeneGo Metacore package ([…] evaluates microarray data for quality issues and flags problematic measurements. It provides a set of normalization algorithms and validated condensing methods to automatically pre-process and summarize raw microarray data for subsequent statistical analysis.

Series [3] concerns healthy, postmenopausal women. The experiment in a line: Clinical trial: muscle strength (knee extensor and flexor strength). Particulars: 4 months; for Muscle strength, knee extension (best value), change vs. baseline / Muscle strength, knee extension (mean value), change vs. baseline / Muscle strength, knee flexion (best value), change vs. baseline / Muscle strength, knee flexion (mean value), change vs. baseline: daily 20 μg per day / weekly 140 μg per week, oral. The series is classed as in vivo, human.
Text: as §1, §2, §3, §4

The conditions of series [4]: at the safe upper level of 250 μg/day; cited from earlier work.
[5] abbreviates: GLM least square means, % time needed adjusted for baseline function, age, BMI, 4 months.
[6] abbreviates: GLM least square means, % improvement adjusted for baseline strength, age, BMI.

`C=C1CC[C@H](O)C/C1=C/C=C1\CCC[C@]2(C)[C@@H]([C@H](C)CCCC(C)(C)O)CC[C@@H]12` [25-OH D3, 25-hydroxyvitamin D3]: the “Soleus-Plantaris muscle weight/body weight” value with C57BL/6J mice (50 μg/kg/day gavage, 3 weeks, control 1.82) worked out at 1.94 mg/g. Further, the Soleus wet weight in the series on C57BL/6J mice (50 μg/kg/day gavage, 3 weeks, control 5.25) is 6.37 mg. This molecule displayed a Plantaris wet weight in the series on C57BL/6J mice (50 μg/kg/day gavage, 3 weeks, control 31.68) of 33.24 mg. The molecule further displayed a Muscle cross-sectional area in the series on C57BL/6J mice (computer tomography, 50 μg/kg/day, 3 weeks, control 19.90) of 20.98 mm^2. In the series on C57BL/6J mice (computer tomography, 50 μg/kg/day, 3 weeks, control 22.78), the “Total leg cross-sectional area” value is 24.04 mm^2. In the series with C57BL/6J mice (in words), the “Skeletal mass by computer tomography of muscle and total leg area” value is “increases skeletal mass”; the “Soleus-plantaris muscle weight/body weight ratio compared to control” value was “increased”; the “Wet weight of the soleus and plantaris muscles compared to control animals” value is recorded as “increased”. For the same molecule, the “Endurance exercise capacity compared to control mice” value in the series on C57BL/6J mice (in words, longer running distance and time) is on record as “increased endurance exercise capacity”. This molecule registered a Running time in the series with C57BL/6J mice (rodent treadmill, 50 μg/kg/day, 3 weeks, control 37.6) of 41.0 min. In the series on C57BL/6J mice (rodent treadmill, 50 μg/kg/day, 3 weeks, control 986.0), this molecule displayed a Running distance of 1078.4 m. Further, in series [1] (setting [5]), the “Muscle function, repeated sit-to-stand, change vs. daily/weekly Vitamin D3” value was found to be 13.9% and the “Muscle function, timed-up-and-go, change vs. daily/weekly Vitamin D3” value came out at 8.4%. For the same molecule, in series [1] (4 months), the “Muscle function, repeated sit-to-stand, change vs. baseline” value was determined as 0.63 s and the “Muscle function, timed-up-and-go, change vs. baseline” value worked out at 0.27 s. For the same molecule, the “Likelihood of maintaining or improving lower extremity strength and function compared to Vitamin D3” value in series [1] (unadjusted analysis across four lower extremity tests) is 2.8 fold. Also, the “Share of the group's differentially expressed probe sets also differentially expressed in 25-OH D3+Vitamin D3 group” value in series [2] (Venn overlap, FIG. 2 / FIG. 3) is roughly 61%. Also, in series [2], the “Differentially expressed muscle genes compared to HU” value is “Desmin; dystonin; myocyte enhancer factor 2A;”. In series [3] (setting [6]), the “Muscle strength, knee extension (best value), change vs. daily/weekly Vitamin D3” value is recorded as 17.6%; the “Muscle strength, knee extension (mean value), change vs. daily/weekly Vitamin D3” value came to 17.0%; the “Muscle strength, knee flexion (best value), change vs. daily/weekly Vitamin D3” value came to 4.7%; the “Muscle strength, knee flexion (mean value), change vs. daily/weekly Vitamin D3” value came out at 3.1%. Further, in series [3], the “Muscle strength, knee extension (best value), change vs. baseline” value is reported as 13.6 Newton; the “Muscle strength, knee extension (mean value), change vs. baseline” value turned out to be 13.0 Newton; the “Muscle strength, knee flexion (best value), change vs. baseline” value was determined as 7.2 Newton; the “Muscle strength, knee flexion (mean value), change vs. baseline” value was 7.9 Newton.
In the case of `C=C1CC[C@H](O)C/C1=C/C=C1\CCC[C@]2(C)[C@@H]([C@H](C)CCCC(C)C)CC[C@@H]12` [Vitamin D3, cholecalciferol], in series [1] (4 months), the “Muscle function, repeated sit-to-stand, change vs. baseline” value is 0.30 s and the “Muscle function, timed-up-and-go, change vs. baseline” value is -0.46 s. The “Differentially expressed probe sets for genes against HU control group” value in series [2] (50 μg/kg/bw each, gavage twice, 7 days hindlimb unloading, Affymetrix Mouse 430-2) came out at 385. In series [2] (Venn overlap, FIG. 2 / FIG. 3), the “Number of the group's differentially expressed probe sets also differentially expressed in 25-OH D3+Vitamin D3 group” value is reported as 177 and the “Share of the group's differentially expressed probe sets also differentially expressed in 25-OH D3+Vitamin D3 group” value is roughly 46%. Besides, the “Expression pattern Myosin, light chain kinase (Mylk)” value in series [2] (gastrocnemius, microarray signal, HU control 749) amounted to 786. In addition, the “Expression pattern Tropomyosin 1 (Tpm1)” value in series [2] (gastrocnemius, microarray signal, HU control 1179) is recorded as 2199. Moreover, in series [2] (gastrocnemius, microarray signal, HU control 11353), the “Expression pattern Titin (Tnt)” value is reported as 11354. Also, the “Expression pattern Myomesin 1 (Myom 1)” value in series [2] (gastrocnemius, microarray signal, HU control 84697) is 99099. In addition, in series [2], the “Differentially expressed muscle genes compared to HU” value is listed as “Desmin; myoneurin; tropomyosin 1, alpha; tropomyosin”. In series [3], the “Muscle strength, knee extension (best value), change vs. baseline” value is on record as −24.8 Newton; the “Muscle strength, knee extension (mean value), change vs. baseline” value is reported as −23.7 Newton; the “Muscle strength, knee flexion (best value), change vs. baseline” value is 2.4 Newton; the “Muscle strength, knee flexion (mean value), change vs. baseline” value came to 3.6 Newton.
For the molecule Vitamin D, in series [4], the “Blood concentration of 25-hydroxyvitamin D after ingestion as dietary supplement” value is “about 200 nmol/L”.
